# Results from US12171230B2, “Herbicidal compositions” (Bayer Aktiengesellschaft, priority 2018, dated 2024).
# “And” between values parts separate entries of the source, which are not always exact repeats. Equal values may be shown once. Read-outs that look alike come from different tables or passages of the source.
# How the values were obtained:
# Format in all cases: in vivo
# Malva pusilia = assay: Post-emergence herbicidal action against Malva pusilia; details: 42 DAT; 100 g a.i./ha
# Panicum maximum = assay: Post-emergence herbicidal action against Panicum maximum
# Experimental: When the observed efficacies exceed the formal sum total of the values of the tests with individual applications, they also exceed the expected value according to Colby, which is calculated using the formula below and is likewise regarded as an indication of synergism (cf. S. R. Colby; in Weeds 15 (1967) p. 20 to 22): E^C=A+B−([…])
# Here: • A=efficacy of the active compound (A) in % at an application rate of a g a.i./ha; • B=efficacy of the active compound (B) in % at an application rate of b g a.i./ha; • E^C=expected value of the effect of the combination (A)+(B) in % at the combined application rate a+b g a.i./ha.
# Seeds or rhizome pieces of mono- and dicotyledonous weeds are placed in sandy loam in pots, covered with soil and grown in a greenhouse under good growth conditions (temperature, air humidity, water supply). Three weeks after sowing, the test plants were treated at the three-leaf stage with the compositions according to the invention. The compositions according to the invention formulated as spray powders or as emulsion concentrates were sprayed onto the green plant parts in various dosages with an application rate of 300 to 800 l/ha of water (equivalent). After the test plants have been left to stand in the greenhouse under optimal growth conditions for about 3 to 4 weeks, the action of the preparations is scored visually in comparison to untreated controls. The compositions according to the invention also have good post-emergence herbicidal activity against a broad spectrum of economically important gramineous and broadleaf weeds.
# Phalaris minor = assay: Post-emergence herbicidal action against Phalaris minor
# Lysimachia nummularia = assay: Post-emergence herbicidal action against Lysimachia nummularia; details: 45 DAT; 100 g a.i./ha
# Alopecurus myosuroides [1] = assay: Post-emergence herbicidal action against Alopecurus myosuroides
# Method in brief: (§1)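 Colby-derived expected values (E^C) and the summed effects of the separate applications (E^A) accompany each rating. Active substance was dosed in grams per hectare on a 100% active-compound basis, with the rating period given as DAT.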
# Lolium rigidum [2] = assay: Post-emergence herbicidal action against Lolium rigidum
# Method in brief: as §1
# Pharbitis purpurea = assay: Post-emergence herbicidal action against Pharbitis purpurea; details: for Herbicidal action 21 DAT [%] against Pharbitis purpurea: post-emergence
# Method in brief: (§2)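 Pot-grown plants, three weeks old at the three-leaf stage, received foliar sprays of various dosages. Visual assessment relative to untreated plants followed 3 to 4 weeks later.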
# Poa annua = assay: Post-emergence herbicidal action against Poa annua
# Method in brief: as §2
# Lolium rigidum [3] = assay: Post-emergence herbicidal action against Lolium rigidum; remark: listed apart in the source
# Amaranthus palmeri = assay: Post-emergence herbicidal action against Amaranthus palmeri; details: for Herbicidal action: 16 DAT; for pest or weed control at […] / pest or weed control at 5 g/ha / pest or weed control at 15 g/ha: Amaranthus palmeri, post-emergence, 504 h; for pest or weed control at […]: 1.7 g of a.i./ha; for pest or weed control at 5 g/ha: 5 g of a.i./ha; for pest or weed control at 15 g/ha: 15 g of a.i./ha
# Method in brief: as §2
# Brachiaria platyphylla = assay: Post-emergence herbicidal action against Brachiaria platyphylla
# Method in brief: as §2
# Kochia scoparia = assay: Post-emergence herbicidal action against Kochia scoparia; details: 1.7 g of a.i./ha
# Text: The following abbreviations are used in the description and the tables that follow: • g of a.i./ha=grams of active substance (active ingredient) (=100% active compound) per hectare; • The sum total of the effects of the individual applications is reported under E^A; • expected values according to Colby are each reported under E^C.
# The rating period is reported in days after application (DAT).
# Digitaria sanguinalis = assay: Post-emergence herbicidal action against Digitaria sanguinalis
# Method in brief: as §2
# [4] = tested on: Lolium rigidum (resistant biotype); assay: Post-emergence herbicidal action against Lolium rigidum (resistant biotype)
# Viola tricolor = assay: Post-emergence herbicidal action against Viola tricolor
# Alopecurus myosuroides [5] = assay: Post-emergence herbicidal action against Alopecurus myosuroides; remark: listed apart in the source
# [6] = block with (B1.14) Tembotrione, read-out: Herbicidal action 21 DAT [%] against Amaranthus palmeri
# [7] = block with (B1.7) Mesotrione, read-out: Herbicidal action 21 DAT [%] against Amaranthus palmeri
# [8] = read-out: Herbicidal action 21 DAT [%] against Amaranthus palmeri
structure (smiles),measurement,setting,value
"C=C[C@]1(C(=O)N[C@H]2CO[C@@H](C(=O)OC)C2)CC(c2cc(F)cc(F)c2)=NO1 (relative stereo) [Compound A3, methyl rel-(2R,4R)-4-[[(5S)-3-(3,5-difluorophenyl)-5-vinyl-4H-isoxazole-5-carbonyl]amino]tetrahydrofuran-2-carboxylate]",Herbicidal action,Malva pusilia,50%
same,Herbicidal action 28 DAT [%] against Panicum maximum,Panicum maximum; 100 g of a.i./ha,82%
same,Herbicidal action 28 DAT against Panicum maximum,"Panicum maximum; g of a.i./ha: 200, 100, 100 + 200",82%
same,Herbicidal action against Phalaris minor,"Phalaris minor; 14 DAT, 1 g of a.i./ha",10%
same,Herbicidal action against Phalaris minor,"Phalaris minor; 14 DAT, 4 g of a.i./ha",90%
same,Herbicidal action against Phalaris minor,"Phalaris minor; 14 DAT, 16 g of a.i./ha",85%
same,Herbicidal action against Phalaris minor,"Phalaris minor; 28 DAT, 1 g of a.i./ha",0%
same,Herbicidal action against Phalaris minor,"Phalaris minor; 28 DAT, 4 g of a.i./ha",70%
same,Herbicidal action against Phalaris minor,"Phalaris minor; 28 DAT, 16 g of a.i./ha",40%
same,Herbicidal action,Lysimachia nummularia,18%
same,Herbicidal action 14 DAT against Alopecurus myosuroides,Alopecurus myosuroides [1]; 1 g of a.i./ha,15%
same,Herbicidal action 28 DAT against Alopecurus myosuroides,Alopecurus myosuroides [1]; 1 g of a.i./ha,15%
same,Herbicidal action 28 DAT against Alopecurus myosuroides,Alopecurus myosuroides [1]; 4 g of a.i./ha,50% and 60%
same,Herbicidal action in [%] 14 DAT against Alopecurus myosuroides,Alopecurus myosuroides [1]; 1 g of a.i./ha,30%
same,Herbicidal action in [%] 14 DAT against Alopecurus myosuroides,Alopecurus myosuroides [1]; 4 g of a.i./ha,75%
same,Herbicidal action in [%] 28 DAT against Alopecurus myosuroides,Alopecurus myosuroides [1]; 1 g of a.i./ha,10%
same,Herbicidal action in [%] 28 DAT against Alopecurus myosuroides,Alopecurus myosuroides [1]; 4 g of a.i./ha,60%
same,Herbicidal action 14 DAT against Lolium rigidum,Lolium rigidum [2]; 1 g of a.i./ha,35%
same,Herbicidal action 28 DAT against Lolium rigidum,Lolium rigidum [2]; 1 g of a.i./ha,15%
same,Herbicidal action 28 DAT against Lolium rigidum,Lolium rigidum [2]; 4 g of a.i./ha,50%
same,Herbicidal action in [%] 14 DAT against Lolium rigidum,Lolium rigidum [2]; 1 g of a.i./ha,40%
same,Herbicidal action in [%] 14 DAT against Lolium rigidum,Lolium rigidum [2]; 4 g of a.i./ha,85%
same,Herbicidal action in [%] 28 DAT against Lolium rigidum,Lolium rigidum [2]; 1 g of a.i./ha,10%
same,Herbicidal action in [%] 28 DAT against Lolium rigidum,Lolium rigidum [2]; 4 g of a.i./ha,70%
same,Herbicidal action 14 DAT against Lolium rigidum,"Lolium rigidum [2]; (Z61) post-emergence, g of a.i./ha: 1, 270, 90, 30, 1 + 270, 1 + 90, 1 + 30",35%
same,Herbicidal action 21 DAT against Pharbitis purpurea,Pharbitis purpurea; 5 g of a.i./ha,80%
same,Herbicidal action 21 DAT [%] against Pharbitis purpurea,Pharbitis purpurea; 5 g of a.i./ha,80%
same,Herbicidal action 21 DAT [%] against Pharbitis purpurea,"Pharbitis purpurea; 21 DAT, 5 g of a.i./ha",85%
same,Herbicidal action 21 DAT [%] against Pharbitis purpurea,"Pharbitis purpurea; 21 DAT, 15 g of a.i./ha",85%
same,Herbicidal action 28 DAT against Poa annua L.,Poa annua; 1 g of a.i./ha,15%
same,Herbicidal action in [%] 14 DAT against Poa annua L.,Poa annua; 1 g of a.i./ha,40% and 50%
same,Herbicidal action in [%] 28 DAT against Poa annua L.,Poa annua; 1 g of a.i./ha,15% and 20%
same,Herbicidal action in [%] 28 DAT against Poa annua,"Poa annua; 1 g of a.i./ha, post-emergence",30%
same,Herbicidal action in [%] 14 DAT against Poa annua L.,Poa annua; 4 g of a.i./ha,85%
same,Herbicidal action in [%] 28 DAT against Poa annua L.,Poa annua; 4 g of a.i./ha,80%
same,Herbicidal action,"Poa annua; 14 DAT, 1 g a.i./ha",50%
same,Herbicidal action against Poa annua L.,"Poa annua; 14 DAT, 1 g of a.i./ha",40%
same,Herbicidal action,"Poa annua; 14 DAT, 4 g a.i./ha",85%
same,Herbicidal action against Poa annua L.,"Poa annua; 14 DAT, 16 g of a.i./ha",85%
same,Herbicidal action 28 DAT against Poa annua L.,Poa annua; 16 g of a.i./ha,40%
same,Herbicidal action in [%] 14 DAT against Poa annua L.,Poa annua; 16 g of a.i./ha,85%
same,Herbicidal action,"Poa annua; 28 DAT, 1 g a.i./ha",20%
same,Herbicidal action against Poa annua L.,"Poa annua; 28 DAT, 1 g of a.i./ha",15%
same,Herbicidal action,"Poa annua; 28 DAT, 4 g a.i./ha",80%
same,Herbicidal action,"Poa annua; 28 DAT, 16 g a.i./ha",85%
same,Herbicidal action against Poa annua L.,"Poa annua; 28 DAT, 16 g of a.i./ha",40%
same,Herbicidal action,"Poa annua; 28 DAT, 50 g a.i./ha",0%
same,Herbicidal action in [%] 14 DAT against Poa annua L.,"Poa annua; post-emergence, 14 DAT, 1 g of a.i./ha",50%
same,Herbicidal action in [%] 14 DAT against Poa annua L.,"Poa annua; post-emergence, 14 DAT, 4 g of a.i./ha",85%
same,Herbicidal action in [%] 14 DAT against Poa annua L.,"Poa annua; post-emergence, 14 DAT, 16 g of a.i./ha",93%
same,Herbicidal action in [%] 28 DAT against Poa annua L.,"Poa annua; post-emergence, 28 DAT, 1 g of a.i./ha",20%
same,Herbicidal action in [%] 28 DAT against Poa annua L.,"Poa annua; post-emergence, 28 DAT, 4 g of a.i./ha",80%
same,Herbicidal action in [%] 28 DAT against Poa annua L.,"Poa annua; post-emergence, 28 DAT, 16 g of a.i./ha",85%
same,Herbicidal action,"Lolium rigidum [3]; 14 DAT, 1 g a.i./ha",40%
same,Herbicidal action,"Lolium rigidum [3]; 28 DAT, 1 g a.i./ha",10%
same,Herbicidal action,"Lolium rigidum [3]; 28 DAT, 4 g a.i./ha",70%
same,Herbicidal action,Amaranthus palmeri; 50 g a.i./ha,35%
same,Herbicidal action,Amaranthus palmeri; 100 g a.i./ha,45%
same,pest or weed control at […],Amaranthus palmeri; [6],0%
same,pest or weed control at […],Amaranthus palmeri; [7],10%
same,pest or weed control at […],"Amaranthus palmeri; block with (B9.10) Saflufenacil, read-out: Herbicidal action 21 DAT [%] against Amaranthus palmeri",0%
same,pest or weed control at 5 g/ha,Amaranthus palmeri; [6],10%
same,pest or weed control at 5 g/ha,Amaranthus palmeri; [7],15%
same,pest or weed control at 5 g/ha,Amaranthus palmeri; [8],15%
same,pest or weed control at 15 g/ha,Amaranthus palmeri; [6],30%
same,pest or weed control at 15 g/ha,Amaranthus palmeri; [8],30%
same,pest or weed control at 5 g/ha,"Amaranthus palmeri; 21 DAT, read-out: Herbicidal action 21 DAT [%] against Amaranthus palmeri",15%
same,pest or weed control at […],Amaranthus palmeri; 21 DAT,10%
same,Herbicidal action 21 DAT [%] against Brachiaria platyphylla,Brachiaria platyphylla; 1.7 g of a.i./ha,20%
same,Herbicidal action 21 DAT against Brachiaria platyphylla,Brachiaria platyphylla; 1.7 g of a.i./ha,20%
same,Herbicidal action 21 DAT [%] against Brachiaria platyphylla,"Brachiaria platyphylla; 1.7 g of a.i./ha, post-emergence, block with (B1.14) Tembotrione",20%
same,Herbicidal action 21 DAT [%] against Brachiaria platyphylla,"Brachiaria platyphylla; 1.7 g of a.i./ha, post-emergence, block with (B9.10) Saflufenacil",20%
same,Herbicidal action 21 DAT [%] against Brachiaria platyphylla,Brachiaria platyphylla; 5 g of a.i./ha,80%
same,Herbicidal action 21 DAT against Kochia scoparia,Kochia scoparia,30%
same,Herbicidal action 21 DAT [%] against Digitaria sanguinalis,Digitaria sanguinalis; 1.7 g of a.i./ha,20% and 10%
same,Herbicidal action 21 DAT against Digitaria sanguinalis,Digitaria sanguinalis; 1.7 g of a.i./ha,10%
same,Herbicidal action 21 DAT [%] against Digitaria sanguinalis,"Digitaria sanguinalis; 1.7 g of a.i./ha, post-emergence",10%
same,Herbicidal action 21 DAT [%] against Digitaria sanguinalis,Digitaria sanguinalis; 5 g of a.i./ha,80%
same,Herbicidal action 21 DAT against Digitaria sanguinalis,Digitaria sanguinalis; 5 g of a.i./ha,80%
same,Herbicidal action,"Digitaria sanguinalis; 21 DAT, 1.7 g a.i./ha",10%
same,Herbicidal action 37 DAT against Digitaria sanguinalis,"Digitaria sanguinalis; (Z61) post-emergence, g of a.i./ha: 180, 100, 100 + 180",94%
same,Herbicidal action against Lolium rigidum (resistant biotype),"[4]; 14 DAT, 1 g of a.i./ha",15%
same,Herbicidal action against Lolium rigidum (resistant biotype),"[4]; 14 DAT, 4 g of a.i./ha",40%
same,Herbicidal action against Lolium rigidum (resistant biotype),"[4]; 28 DAT, 1 g of a.i./ha",0%
same,Herbicidal action against Viola tricolor,"Viola tricolor; 14 DAT, 1 g of a.i./ha",50%
same,Herbicidal action against Viola tricolor,"Viola tricolor; 14 DAT, 16 g of a.i./ha",85%
same,Herbicidal action against Viola tricolor,"Viola tricolor; 28 DAT, 1 g of a.i./ha",15%
same,Herbicidal action against Viola tricolor,"Viola tricolor; 28 DAT, 16 g of a.i./ha",20%
same,Herbicidal action in [%] 14 DAT against Alopecurus myosuroides,Alopecurus myosuroides [5]; 1 g of a.i./ha,15% and 30%
same,Herbicidal action in [%] 28 DAT against Alopecurus myosuroides,Alopecurus myosuroides [5]; 1 g of a.i./ha,15% and 10%
same,Herbicidal action in [%] 14 DAT against Alopecurus myosuroides,"Alopecurus myosuroides [5]; 1 g of a.i./ha, second 14 DAT block",35%
same,Herbicidal action in [%] 14 DAT against Alopecurus myosuroides,Alopecurus myosuroides [5]; 4 g of a.i./ha,90% and 75%
same,Herbicidal action in [%] 28 DAT against Alopecurus myosuroides,Alopecurus myosuroides [5]; 4 g of a.i./ha,50% and 60%
same,Herbicidal action in [%] 28 DAT against Alopecurus myosuroides,Alopecurus myosuroides [5]; 16 g of a.i./ha,90%
